Data on 15 molecules can be found in ChEMBL document CHEMBL1145130, “S-acyl-2-thioethyl phosphoramidate diester derivatives as mononucleotide prodrugs” (J Med Chem, 2003).

Experiment [1] relates to CEM/TK- (Homo sapiens). The experiment in a line: Cytotoxic concentration required to reduce viability of uninfected cells in CEM/TK cell line.
Experiment [2] has as its system CEM-SS. The experiment in a line: Cytotoxic concentration required to reduce viability of uninfected cells in CEM-SS cell line. The format is functional. The following applies: Homo sapiens.
In experiment [3] the test system is Human immunodeficiency virus 1. Put plainly: Effective concentration required to inhibit HIV-1 replication in CEM-SS cell line. The format is functional, organism-based. The following applies: Human immunodeficiency virus 1, CEM-SS.
Experiment [4] has as its system Human immunodeficiency virus 1. The experiment in a line: Effective concentration required to inhibit HIV-1 replication in MT-4 cell line. The format is functional, organism-based. Particulars: Human immunodeficiency virus 1, MT4.
Experiment [5] concerns Human immunodeficiency virus 1. Put plainly: Effective concentration required to inhibit HIV-1 replication in CEM/TK cell line. The format is functional, organism-based. The following applies: Human immunodeficiency virus 1, CEM-TK(-).
Experiment [6] deals with MT4. The experiment in a line: Cytotoxic concentration required to reduce viability of uninfected cells in MT-4 cell line. The format is functional. The following applies: Homo sapiens.
For experiment [7], the system named is CEM-TK(-) (Homo sapiens). The experiment in a line: Compound was tested for its cytotoxic concentration required to reduce viability of uninfected cells in CEM/TK(-) cell line.

A word on the CC50: it is the concentration giving 50% cytotoxicity. By EC50 is commonly meant the concentration at which the effect is half-maximal. High values mean lower potency in that assay, low ones higher potency in that assay. Regarding `Cc1cn(C2CC(N=[N+]=[N-])C(COP(=O)(OCCSC(=O)C(C)(C)C)N3CCCCC3)O2)c(=O)[nH]c1=O` (stereo not given), the CC50 in experiment [1], in experiment [2] and in experiment [6] was over 100000 nM in each case. For the same molecule, the half-maximal effective concentration (EC50) in experiment [3] stood at 20 nM; in experiment [4], 220 nM; in experiment [5], 5200 nM.
As to `COC(=O)C(C)(C)NP(=O)(OCCSC(=O)C(C)(C)C)OCC1OC(n2cc(C)c(=O)[nH]c2=O)CC1N=[N+]=[N-]` (stereo not given), the CC50 in experiment [2], in experiment [7] and in experiment [6] was over 100000 nM throughout. Further, the EC50 in experiment [3] came to 80 nM; in experiment [4] it was 540 nM; in experiment [5] it was 2900 nM.
As to `Cc1cn(C2CC(N=[N+]=[N-])C(COP(=O)(Nc3ccccc3)OCCSC(=O)C(C)(C)C)O2)c(=O)[nH]c1=O` (stereo not given), the 50% cytotoxic concentration (CC50) in experiment [1], in experiment [2] and in experiment [6] was over 10000 nM in each case. The concentration for a half-maximal effect (EC50) in experiment [3] was 5 nM; in experiment [4], 700 nM; in experiment [5], over 10000 nM.
With `Cc1cn(C2CC(N=[N+]=[N-])C(COP(=O)(NC(C)C)OCCSC(=O)C(C)(C)C)O2)c(=O)[nH]c1=O` (stereo not given), the CC50 in experiment [1], in experiment [2] and in experiment [6] was over 100000 nM in each case. Besides, the values for the 50% effective concentration (EC50) in experiment [3], in experiment [4] and in experiment [5] were 20 nM, 130 nM and 750 nM, respectively.
With `COC(=O)[C@H](C)NP(=O)(OC[C@H]1O[C@@H](n2cc(C)c(=O)[nH]c2=O)C[C@@H]1N=[N+]=[N-])Oc1ccccc1` (stereo not given in full), the figures for the CC50 in experiment [1], in experiment [2] and in experiment [6] were over 100000 nM, over 100000 nM and over 10000 nM, respectively. Further, the EC50 in experiment [3] was 50 nM; in experiment [4], 340 nM; in experiment [5] it was 4300 nM.
With `Cc1cn([C@H]2C[C@H](N=[N+]=[N-])[C@@H](CO)O2)c(=O)[nH]c1=O` [ZIDOVUDINE], the CC50 is over 100000 nM in experiment [1], over 100000 nM in experiment [2] and 75000 nM in experiment [6]. For the same molecule, the half-maximal effective concentration (EC50) was 6 nM in experiment [3], 17 nM in experiment [4] and over 100000 nM in experiment [5].
Take `COC(=O)[C@@H](C)NP(=O)(OCCSC(=O)C(C)(C)C)OCC1OC(n2cc(C)c(=O)[nH]c2=O)CC1N=[N+]=[N-]` (stereo not given in full): the CC50 in experiment [1], in experiment [2] and in experiment [6] was over 100000 nM each time. The EC50 worked out at 70 nM in experiment [3], 450 nM in experiment [4] and 2400 nM in experiment [5].
As to `COC(=O)C(C)NP(=O)(OCCSC(=O)C(C)(C)C)OCC1OC(n2cc(C)c(=O)[nH]c2=O)CC1N=[N+]=[N-]` (stereo not given), the half-maximal cytotoxic concentration (CC50) in experiment [1], in experiment [2] and in experiment [6] was over 100000 nM each time. Further, the EC50 was found to be 20 nM in experiment [3], 420 nM in experiment [4] and 2100 nM in experiment [5].
Regarding `COC(=O)[C@H](Cc1ccccc1)NP(=O)(OCCSC(=O)C(C)(C)C)OCC1OC(n2cc(C)c(=O)[nH]c2=O)CC1N=[N+]=[N-]` (stereo not given in full), the half-maximal cytotoxic concentration (CC50) in experiment [1] is over 10000 nM; in experiment [2] it was over 100000 nM; in experiment [6], over 10000 nM. Besides, the results for the EC50 in experiment [3], in experiment [4] and in experiment [5] were 27 nM, 250 nM and 2300 nM, respectively.
`COC(=O)[C@H](COC(C)=O)NP(=O)(OCCSC(=O)C(C)(C)C)OCC1OC(n2cc(C)c(=O)[nH]c2=O)CC1N=[N+]=[N-]` (stereo not given in full): the CC50 in experiment [1], in experiment [2] and in experiment [6] was over 100000 nM in each case. The EC50 in experiment [3] turned out to be 7 nM; in experiment [4], 53 nM; in experiment [5], 16000 nM.
On to `CCC(NP(=O)(OCCSC(=O)C(C)(C)C)OCC1OC(n2cc(C)c(=O)[nH]c2=O)CC1N=[N+]=[N-])C(=O)OC` (stereo not given), for which the CC50 in experiment [1], in experiment [2] and in experiment [6] was over 100000 nM in each case. The EC50 in experiment [3] was 6 nM; in experiment [4] it was 130 nM; in experiment [5], 2400 nM.
For `COC(=O)[C@H](CO[Si](C)(C)C(C)(C)C)NP(=O)(OCCSC(=O)C(C)(C)C)OCC1OC(n2cc(C)c(=O)[nH]c2=O)CC1N=[N+]=[N-]` (stereo not given in full), the CC50 in experiment [1], in experiment [2] and in experiment [6] was over 10000 nM throughout. For the same molecule, the values for the EC50 in experiment [3], in experiment [4] and in experiment [5] were 100 nM, 400 nM and 1000 nM, respectively.
For `COC(=O)[C@H](Cc1ccc(O)cc1)NP(=O)(OCCSC(=O)C(C)(C)C)OCC1OC(n2cc(C)c(=O)[nH]c2=O)CC1N=[N+]=[N-]` (stereo not given in full), the CC50 in experiment [1], in experiment [2] and in experiment [6] was over 100000 nM each time. In addition, the results for the EC50 in experiment [3], in experiment [4] and in experiment [5] were 90 nM, 740 nM and 5300 nM, respectively.
For the molecule `COC(=O)CNP(=O)(OCCSC(=O)C(C)(C)C)OCC1OC(n2cc(C)c(=O)[nH]c2=O)CC1N=[N+]=[N-]` (stereo not given), the CC50 in experiment [1], in experiment [2] and in experiment [6] was over 100000 nM each time. Moreover, the EC50 amounted to 9 nM in experiment [3], 450 nM in experiment [4] and 1400 nM in experiment [5].
On to `COC(=O)[C@H](C)NP(=O)(OCCSC(=O)C(C)(C)C)OCC1OC(n2cc(C)c(=O)[nH]c2=O)CC1N=[N+]=[N-]` (stereo not given in full), for which the CC50 in experiment [1], in experiment [2] and in experiment [6] was over 100000 nM each time. The EC50 was 54 nM in experiment [3], 340 nM in experiment [4] and 4300 nM in experiment [5].
